{"source": "patent US7662361B2", "about": "“Methods and compositions for modulating drug activity through telomere damage” (priority 1999, dated 2010)", "test_system": "telomere length", "test": "TALA telomere length, paclitaxel and AZT alone or in combination", "format": "cell-based, human", "excerpt": "The effect of paclitaxel and AZT, alone or in combination, on telomere length was studied using TALA."}
{"smiles": "CC(=O)O[C@H]1C(=O)[C@@]2(C)[C@H]([C@H](OC(=O)c3ccccc3)[C@]3(O)C[C@H](OC(=O)[C@H](O)[C@@H](NC(=O)c4ccccc4)c4ccccc4)C(C)=C1C3(C)C)[C@]1(OC(C)=O)CO[C@@H]1C[C@@H]2O", "note": "[paclitaxel]", "values": [{"measurement": "shortening of the average telomeric length", "setting": "200 nM paclitaxel 24 hr, combination: 10 μM AZT 24 hr pretreatment then AZT plus paclitaxel 24 hr", "result": 13, "unit": "%"}, {"measurement": "telomere shortening on extending treatment", "setting": "paclitaxel 36 hr", "result": "did not produce a greater telomere shortening"}]}
